Test results: ChEMBL document CHEMBL1201862, “PubChem BioAssay data set” (2004)
The source made the active and inactive calls.

Tests used:
NIH3T3 = experiment: NIH-3T3 viability with fluconazole co-treatment – cell-based, Alamar Blue, dry powder, set 2, cytotoxicity control for antifungal resistance reversal project, dose response (AID 488911); type: functional; settings: Mus musculus
Candida albicans = experiment: resistant Candida growth with fluconazole co-treatment – CaCi-8 strain, Alamar Blue, dry powder, set 2, dose response (AID 488909); type: functional, organism-based
Caspase-3 [1] = target: T1, Caspase-3 (Homo sapiens, UniProt P42574); experiment: inhibition of recombinant caspase-3 activity – biochemical, luminescence, set 2, selectivity assay for SENP protease inhibitor project, SAR follow-up (AID 588599); type: functional
T1 sequence (P42574 whole entry): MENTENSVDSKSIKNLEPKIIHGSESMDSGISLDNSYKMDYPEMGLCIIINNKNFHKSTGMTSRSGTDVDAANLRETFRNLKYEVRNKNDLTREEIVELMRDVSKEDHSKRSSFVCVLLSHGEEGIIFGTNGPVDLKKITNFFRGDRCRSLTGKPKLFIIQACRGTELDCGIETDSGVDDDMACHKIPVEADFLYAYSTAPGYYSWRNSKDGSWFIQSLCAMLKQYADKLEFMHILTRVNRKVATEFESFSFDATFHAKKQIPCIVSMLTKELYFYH

[2] = target: T2, Sentrin-specific protease 8 (Homo sapiens, UniProt Q96LD8); experiment: inhibition of sentrin protease 8 – biochemical, luminescence, set 2, SAR follow-up (AID 588601); type: functional
T2 sequence (Q96LD8 whole entry): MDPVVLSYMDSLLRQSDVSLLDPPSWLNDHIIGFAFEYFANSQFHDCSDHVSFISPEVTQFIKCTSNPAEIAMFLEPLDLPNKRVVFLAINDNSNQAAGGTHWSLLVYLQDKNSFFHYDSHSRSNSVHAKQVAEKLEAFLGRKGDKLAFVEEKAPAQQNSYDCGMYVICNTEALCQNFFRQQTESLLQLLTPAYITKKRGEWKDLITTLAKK

[3] = target: T3, Sentrin-specific protease 7 (Homo sapiens, UniProt Q9BQF6); experiment: inhibition of human SENP7 cleavage activity – biochemical, luminescence, set 2, SAR follow-up (AID 588600); type: functional
T3 sequence (Q9BQF6 whole entry): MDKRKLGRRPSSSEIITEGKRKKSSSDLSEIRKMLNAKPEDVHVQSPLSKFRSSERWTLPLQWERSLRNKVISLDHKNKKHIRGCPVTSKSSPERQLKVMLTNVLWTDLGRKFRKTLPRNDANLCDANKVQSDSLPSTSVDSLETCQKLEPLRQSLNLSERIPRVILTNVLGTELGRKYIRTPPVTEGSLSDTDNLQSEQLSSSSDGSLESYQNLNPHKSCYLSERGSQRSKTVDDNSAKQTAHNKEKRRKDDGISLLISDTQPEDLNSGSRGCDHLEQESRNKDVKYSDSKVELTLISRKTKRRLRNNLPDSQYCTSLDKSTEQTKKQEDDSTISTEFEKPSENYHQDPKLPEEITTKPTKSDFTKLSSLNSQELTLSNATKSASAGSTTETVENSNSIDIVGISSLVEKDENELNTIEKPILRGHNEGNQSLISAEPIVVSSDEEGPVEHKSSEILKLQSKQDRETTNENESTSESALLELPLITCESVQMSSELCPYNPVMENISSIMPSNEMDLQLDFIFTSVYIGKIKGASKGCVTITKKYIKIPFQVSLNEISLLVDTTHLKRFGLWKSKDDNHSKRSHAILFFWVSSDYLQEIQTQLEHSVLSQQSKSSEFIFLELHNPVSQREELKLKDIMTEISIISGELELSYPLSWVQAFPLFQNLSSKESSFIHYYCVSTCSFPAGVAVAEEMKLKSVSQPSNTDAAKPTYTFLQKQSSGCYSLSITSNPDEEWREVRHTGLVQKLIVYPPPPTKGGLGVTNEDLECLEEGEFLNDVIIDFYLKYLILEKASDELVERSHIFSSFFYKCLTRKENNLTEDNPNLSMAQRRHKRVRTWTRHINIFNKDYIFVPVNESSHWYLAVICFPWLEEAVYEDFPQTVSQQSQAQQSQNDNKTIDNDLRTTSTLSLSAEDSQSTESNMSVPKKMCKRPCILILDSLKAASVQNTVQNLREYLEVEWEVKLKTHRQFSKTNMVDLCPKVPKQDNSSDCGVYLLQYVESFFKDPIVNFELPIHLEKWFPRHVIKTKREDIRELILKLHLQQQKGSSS

[4] = target: T4, Sentrin-specific protease 6 (Homo sapiens, UniProt Q9GZR1); experiment: inhibition of human SENP6 catalytic domain – biochemical, luminescence, set 2, SAR follow-up (AID 588598); type: functional
T4 sequence (Q9GZR1 whole entry): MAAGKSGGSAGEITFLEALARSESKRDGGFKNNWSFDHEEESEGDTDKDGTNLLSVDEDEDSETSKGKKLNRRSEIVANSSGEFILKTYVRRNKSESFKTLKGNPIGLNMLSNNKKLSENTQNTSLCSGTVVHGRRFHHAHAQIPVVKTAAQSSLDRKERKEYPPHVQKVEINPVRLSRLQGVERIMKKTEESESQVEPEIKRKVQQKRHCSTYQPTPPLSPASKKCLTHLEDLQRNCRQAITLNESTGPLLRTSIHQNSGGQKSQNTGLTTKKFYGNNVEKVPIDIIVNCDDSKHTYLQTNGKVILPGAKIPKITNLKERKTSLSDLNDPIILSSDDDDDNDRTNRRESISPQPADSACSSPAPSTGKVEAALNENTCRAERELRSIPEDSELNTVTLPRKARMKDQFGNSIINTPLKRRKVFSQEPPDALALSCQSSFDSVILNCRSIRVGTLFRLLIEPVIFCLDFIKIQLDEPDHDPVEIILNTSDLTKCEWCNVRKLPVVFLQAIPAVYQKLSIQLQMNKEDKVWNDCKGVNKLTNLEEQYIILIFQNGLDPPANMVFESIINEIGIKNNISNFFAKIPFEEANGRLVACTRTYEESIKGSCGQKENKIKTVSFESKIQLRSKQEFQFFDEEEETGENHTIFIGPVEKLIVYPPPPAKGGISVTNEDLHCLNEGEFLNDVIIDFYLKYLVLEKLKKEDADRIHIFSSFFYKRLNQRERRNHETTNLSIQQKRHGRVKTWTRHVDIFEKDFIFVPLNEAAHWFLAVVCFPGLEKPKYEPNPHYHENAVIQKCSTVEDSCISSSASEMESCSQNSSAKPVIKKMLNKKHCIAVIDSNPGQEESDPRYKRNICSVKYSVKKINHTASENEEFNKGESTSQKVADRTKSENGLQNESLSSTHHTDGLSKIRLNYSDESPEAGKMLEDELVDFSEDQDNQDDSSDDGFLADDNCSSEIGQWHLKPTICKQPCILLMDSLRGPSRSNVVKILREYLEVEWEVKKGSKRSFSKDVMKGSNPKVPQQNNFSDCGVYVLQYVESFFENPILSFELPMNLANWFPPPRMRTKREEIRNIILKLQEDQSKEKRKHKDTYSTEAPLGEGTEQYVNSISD

[5] = NIH-3T3 fibroblast cytotoxicity, dose response, cytotoxicity control, cell-based, fluorescence, Alamar Blue, secondary assay (AID 2327); type: functional;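 note: NIH-3T3 mouse fibroblasts cultured with fluconazole at 8 µg/mL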
[6] = system: Streptococcus sp. 'group A'; experiment: Streptococcus pyogenes SK(-)GAS viability under kanamycin – luminescence, BacTiterGlo, confirmation, counter-screen for streptokinase expression inhibitor project, dose response (AID 1900); type: functional, organism-based
cells [7] = type: functional, cell-based
[8] = fluconazole-exposed Candida albicans growth modulators – fluorescence, retest, confirmation (AID 2467); type: functional, cell-based
[9] = Trypanosoma cruzi growth suppression in host cells – NIH3T3 host cells, beta-gal luminescence, confirmation (AID 2044); type: functional, cell-based;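 note: intracellular parasites grown in NIH/3T3 mouse fibroblasts as host cells; luminescent beta-galactosidase reporter signal from transgenic T. cruzi replicating inside host cells; inhibitors lower the luminescence signal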
cells [10] = type: functional, cell-based; remark: listed apart in the source
[11] = target: Serine/threonine-protein phosphatase (Candida dubliniensis (strain CD36 / CBS 7987 / NCPF 3949 / NRRLY-17841) (Yeast), UniProt B9W6M3); experiment: blockers of CaCl2-induced CDRE-lacZ signaling – S. cerevisiae, luminescence, secondary, dose response (AID 2388); type: functional, cell-based;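 note: yeast reporter cells carrying a calcineurin-responsive lacZ construct stimulated with calcium chloride; luminescent beta-galactosidase reporter signal in whole cells rather than isolated phosphatase activity; potency for inhibition where a drop in reporter signal means calcineurin blockade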
Chain of Serine/threonine-protein phosphatase (B9W6M3 whole entry): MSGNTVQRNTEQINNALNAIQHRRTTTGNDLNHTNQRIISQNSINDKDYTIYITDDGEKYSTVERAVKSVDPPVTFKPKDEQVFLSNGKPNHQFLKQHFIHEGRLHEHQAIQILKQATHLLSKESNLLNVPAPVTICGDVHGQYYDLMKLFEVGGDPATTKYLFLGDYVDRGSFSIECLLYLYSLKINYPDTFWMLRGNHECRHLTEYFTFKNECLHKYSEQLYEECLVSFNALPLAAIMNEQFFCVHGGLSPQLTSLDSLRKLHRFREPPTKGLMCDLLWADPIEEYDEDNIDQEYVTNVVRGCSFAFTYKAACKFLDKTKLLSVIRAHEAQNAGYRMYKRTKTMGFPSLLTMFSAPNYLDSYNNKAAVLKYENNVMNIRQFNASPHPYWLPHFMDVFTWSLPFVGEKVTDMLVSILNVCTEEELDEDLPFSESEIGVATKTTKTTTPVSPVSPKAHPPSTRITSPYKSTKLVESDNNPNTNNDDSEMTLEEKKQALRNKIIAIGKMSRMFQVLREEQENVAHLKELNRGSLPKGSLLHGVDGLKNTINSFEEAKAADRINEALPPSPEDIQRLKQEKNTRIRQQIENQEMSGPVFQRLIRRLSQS

[12] = NIH3T3 cell viability loss – ATP luminescence, mouse fibroblasts, counter-screen, dose response (AID 2010); type: functional, cell-based;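 note: cells exposed to compound for about 90 hours before reading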
Streptococcus = experiment: GAS UMAA2166 growth inhibition – luminescence, BacTiterGlo, counter-screen for streptokinase expression inhibitor project, dose response (AID 1915); type: functional, organism-based;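 note: potency for reduction of bacterial viability or growth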
[13] = HEK-293T viability loss after treatment – luminescence, T-cell screen hits, cytotoxicity control for TCR NF-kB inhibitor project, dose response (AID 489026); type: functional, cell-based;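 note: cells exposed to compound about 14 hours before the viability readout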
HEK293 [14] = experiment: EBV LMP1 TES2 canonical NF-kB signalling blockers – cell-based, HEK293, luciferase, cherry-pick, dose response (AID 588343); type: functional; settings: Homo sapiens
HEK293 [15] = experiment: HEK293T cell viability loss, resazurin readout – resazurin fluorescence, cytotoxicity control for NF-kB activator project, SAR follow-up (AID 493251); type: functional, cell-based; settings: Homo sapiens
Jurkat = experiment: SAR Analysis of small molecule inhibitors of T-cell specific antigen receptor-induced NF-kB activation in a Jurkat cell line using a luminescence assay - Set 2. [Related pubchem assays (depositor defined):AID435003, AID435012, AID465]; type: functional, cell-based; settings: Homo sapiens
HEK293 [16] = experiment: SAR Analysis of small molecule inhibitors of T-cell specific antigen receptor-induced NF-kB activation in a HEK-293T cell line using a luminescence assay - Set 2. [Related pubchem assays (depositor defined):AID435003, AID435012, AID489026]; type: functional, cell-based; settings: Homo sapiens
INS1 = experiment: INS-1E survival protection against cytokine death – cell-based, luminescence, retest, dose response (AID 449756); type: functional; settings: Rattus norvegicus;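 note: cell death triggered by IL-1 beta plus TNF-alpha plus IFN-gamma mixture; protective hits raise ATP signal compared with cytokine alone wells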
[17] = target: ATP-dependent molecular chaperone HSP82 (Candida albicans (strain WO-1) (Yeast), UniProt C4YTQ8); experiment: steroid-induced GRE reporter decrease in yeast – S. cerevisiae, luminescence, Hsp90 inhibitor project, dose response (AID 2400); type: functional, cell-based;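 note: beta-galactosidase luminescence from glucocorticoid response element reporter as proxy for Hsp90 function; inhibitor potency where signal loss means Hsp90 inhibition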
Chain of ATP-dependent molecular chaperone HSP82 (C4YTQ8 whole entry): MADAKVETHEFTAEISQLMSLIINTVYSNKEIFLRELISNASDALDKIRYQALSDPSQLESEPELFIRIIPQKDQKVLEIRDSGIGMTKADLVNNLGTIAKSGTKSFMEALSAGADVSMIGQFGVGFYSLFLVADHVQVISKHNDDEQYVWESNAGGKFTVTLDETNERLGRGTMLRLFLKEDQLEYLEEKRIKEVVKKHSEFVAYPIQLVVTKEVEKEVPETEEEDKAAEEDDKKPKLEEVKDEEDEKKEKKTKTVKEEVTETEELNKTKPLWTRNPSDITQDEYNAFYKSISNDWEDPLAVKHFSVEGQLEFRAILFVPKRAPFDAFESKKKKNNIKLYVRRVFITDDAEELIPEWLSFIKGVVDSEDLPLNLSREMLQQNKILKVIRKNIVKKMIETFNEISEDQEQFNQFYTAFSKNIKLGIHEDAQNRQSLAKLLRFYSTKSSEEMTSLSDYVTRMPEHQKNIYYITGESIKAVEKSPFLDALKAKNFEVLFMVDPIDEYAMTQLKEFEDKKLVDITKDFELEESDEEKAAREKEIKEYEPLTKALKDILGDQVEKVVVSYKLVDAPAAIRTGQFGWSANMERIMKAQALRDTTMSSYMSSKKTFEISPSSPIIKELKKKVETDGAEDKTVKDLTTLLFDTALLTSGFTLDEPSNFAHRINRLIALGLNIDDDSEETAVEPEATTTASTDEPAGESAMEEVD

[18] = reduction of Shn3 3'UTR-driven luciferase in osteoblasts – cell-based, Clone20 osteoblasts, firefly luciferase, cherry-picked, dose response (AID 624132); type: functional;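 note: firefly luciferase luminescence from reporter carrying the Shn3 3'UTR in osteoblasts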
[19] = loss of viability in HepG2 cells – cell-based, CellTiter-Glo, cherry-picked, cytotoxicity control for Shn3 inhibitor project, dose response (AID 624134); type: functional
[20] = non-specific 3'UTR reporter inhibition in Clone20-Shn3RL – cell-based, Renilla luciferase, cherry-picked, counter-screen for Shn3 inhibitor project, dose response (AID 624133); type: functional
CAAX prenyl protease 2 [21] = target: CAAX prenyl protease 2 (Homo sapiens, UniProt Q9Y256); experiment: inhibition of Ras-converting CAAX endoprotease – biochemical, plate reader, dry powder samples, dose response (AID 588848)
Chain of CAAX prenyl protease 2 (Homo sapiens, UniProt Q9Y256) (Q9Y256 whole entry): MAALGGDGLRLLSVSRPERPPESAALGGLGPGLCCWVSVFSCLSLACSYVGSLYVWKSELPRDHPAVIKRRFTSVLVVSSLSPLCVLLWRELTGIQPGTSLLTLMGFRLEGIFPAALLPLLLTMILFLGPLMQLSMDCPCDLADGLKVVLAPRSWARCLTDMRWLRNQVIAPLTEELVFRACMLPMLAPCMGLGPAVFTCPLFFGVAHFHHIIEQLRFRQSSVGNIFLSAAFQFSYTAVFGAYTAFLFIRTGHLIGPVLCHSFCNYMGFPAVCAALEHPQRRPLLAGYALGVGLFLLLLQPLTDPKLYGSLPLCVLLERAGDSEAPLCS

CAAX prenyl protease 2 [22] = target: T5, CAAX prenyl protease 2 (Saccharomyces cerevisiae S288c, UniProt Q03530); experiment: inhibition of Rce1p peptide cleavage – biochemical, plate reader, dry powder retest, dose response (AID 588851)
T5 sequence (Q03530 whole entry): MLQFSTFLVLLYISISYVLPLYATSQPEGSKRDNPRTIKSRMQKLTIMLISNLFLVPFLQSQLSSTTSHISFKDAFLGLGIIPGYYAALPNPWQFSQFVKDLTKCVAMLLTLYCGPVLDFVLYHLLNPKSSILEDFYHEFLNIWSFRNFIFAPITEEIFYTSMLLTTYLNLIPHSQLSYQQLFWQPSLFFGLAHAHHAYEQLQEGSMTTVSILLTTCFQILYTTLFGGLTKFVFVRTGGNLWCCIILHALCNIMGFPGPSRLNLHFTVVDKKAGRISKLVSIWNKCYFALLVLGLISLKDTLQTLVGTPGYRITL

Cysteine protease ATG4B = Cysteine protease ATG4B (Homo sapiens, UniProt Q9Y4P1); type: functional;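 note: Fluorescence-based dose-response confirmation assay measuring inhibition of ATG4B activity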
Chain of Cysteine protease ATG4B (Q9Y4P1 whole entry): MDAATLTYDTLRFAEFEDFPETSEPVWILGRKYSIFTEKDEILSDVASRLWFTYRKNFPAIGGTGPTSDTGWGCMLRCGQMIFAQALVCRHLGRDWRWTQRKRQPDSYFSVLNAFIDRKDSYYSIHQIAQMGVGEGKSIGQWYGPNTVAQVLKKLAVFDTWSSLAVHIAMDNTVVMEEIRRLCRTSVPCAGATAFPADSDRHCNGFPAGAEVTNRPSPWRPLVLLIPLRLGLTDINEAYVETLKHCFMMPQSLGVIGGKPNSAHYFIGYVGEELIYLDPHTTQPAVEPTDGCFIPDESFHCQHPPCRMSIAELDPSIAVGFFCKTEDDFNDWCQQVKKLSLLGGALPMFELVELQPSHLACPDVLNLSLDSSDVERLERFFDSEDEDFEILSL

Phospholipase A2 = Phospholipase A2 (Homo sapiens, UniProt P04054); type: functional;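 note: confirmatory dose-response counterscreen on phospholipase A2, testing hits that came from an ultra-high-throughput screen for ATG4B inhibitors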
Chain of Phospholipase A2 (P04054 whole entry): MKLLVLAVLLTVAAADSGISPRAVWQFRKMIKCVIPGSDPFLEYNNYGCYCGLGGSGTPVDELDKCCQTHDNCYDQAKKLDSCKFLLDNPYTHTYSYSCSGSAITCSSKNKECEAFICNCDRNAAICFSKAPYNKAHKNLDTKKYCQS

[23] = target: T2, Sentrin-specific protease 8; experiment: inhibition of human SENP8 cleavage activity – biochemical, luminescence, SAR follow-up (AID 504501); type: functional
Caspase-3 [24] = target: T1, Caspase-3; experiment: SAR Analysis of small molecule inhibitors of Sentrin-specific proteases (SENPs) using a Caspase-3 Selectivity assay. [Related pubchem assays (depositor defined):AID2540, AID2599, AID434973, AID489001]; type: functional
[25] = target: T4, Sentrin-specific protease 6; experiment: SAR Analysis of small molecule inhibitors of Sentrin-specific protease 6 (SENP6) using a Luminescent assay. [Related pubchem assays (depositor defined):AID2582, AID2599]; type: functional
[26] = target: T3, Sentrin-specific protease 7; experiment: inhibition of human SENP7 cleavage activity – biochemical, luminescence, SAR follow-up (AID 504497); type: functional

COc1ccnc(N2CCN(C(=O)c3ccc(Cl)cc3)CC2)c1
AC50 (NIH3T3): 96.1 µM (active)
AC50 (Candida albicans): 30.4 µM (active)

O=C(NCC[S+]([O-])c1c(-c2ccc(F)cc2)[nH]c2ccccc12)C(=O)c1c[nH]c2ccccc12 (stereo not drawn)
IC50 (Caspase-3 [1]): 50.7 µM (active)
IC50 [2]: 84 µM (active)
IC50 [3]: 88.8 µM (active)
IC50 [4]: 94.5 µM (active)

CCCCC(=O)NC(c1ccc(Cl)cc1Cl)c1ccc2cccnc2c1O (stereo not drawn)
EC50 [5]: 13.3 µM (active)
EC50 [6]: 1.29 µM (active)
EC50 (cells [7]): 8.53 µM (active)
EC50 [8]: 0.698 µM (active)
EC50 [9]: 0.126 µM (active)
EC50 (cells [10]): > 350 µM (not active)
EC50 [11]: > 180 µM (inactive)
EC50 [12]: 0.57 µM (active)
EC50 (Streptococcus): 2.12 µM (active)
IC50 [13]: > 80 µM (inactive)
AC50 (HEK293 [14]): 4.57 µM (active)
IC50 (HEK293 [15]): 26.8 µM (inactive)
IC50 (Jurkat): 3.7 µM (active)
IC50 (HEK293 [16]): 3.23 µM (active)
AC50 (INS1): 0.422 µM (active)
EC50 [17]: > 150 µM (inactive)
AC50 [18]: 0.67 µM (active)
AC50 [19]: > 70 µM (inactive)
AC50 [20]: 0.861 µM (active)

CN(C)CCCN(C(=O)c1cc(-c2cccs2)nc2ccccc12)c1nc2ccc(F)cc2s1
AC50 (CAAX prenyl protease 2 [21]): 49.5 µM (active)
AC50 (CAAX prenyl protease 2 [22]): 33.6 µM (active)

O=C(c1ccc(OC2CCN(C/C=C/c3ccc(F)cc3)CC2)cc1)N1CCCC1
IC50 (Cysteine protease ATG4B): 11.8 µM (active)
IC50 (Phospholipase A2): 7.22 µM (active)

CC(C)C(=O)Nc1ccc(-c2nc3cc(Cl)ccc3o2)cc1
IC50 [23]: > 99 µM (inactive)
IC50 (Caspase-3 [24]): 23.7 µM (active)
IC50 [25]: > 99 µM (inactive)
IC50 [26]: 2.66 µM (active)
